According to ChEMBL document CHEMBL3098053, “Inhibition of serine and proline racemases by substrate-product analogues” (Bioorg Med Chem Lett, 2014):

Key:
Serine racemase [1] = molecular target: T1, Serine racemase (Schizosaccharomyces pombe (strain 972 / ATCC 24843) (Fission yeast), UniProt O59791); test: (§1) Mixed type inhibition of N-terminal 6xHis-tagged recombinant Schizosaccharomyces pombe 972 serine racemase expressed in Escherichia coli BL21(DE3) using L-serine as substrate assessed as enzyme-substrate-inhibitor complex preincubated for 2 mins followed by substrate addition by double reciprocal plot analysis
T1 sequence (O59791 whole entry): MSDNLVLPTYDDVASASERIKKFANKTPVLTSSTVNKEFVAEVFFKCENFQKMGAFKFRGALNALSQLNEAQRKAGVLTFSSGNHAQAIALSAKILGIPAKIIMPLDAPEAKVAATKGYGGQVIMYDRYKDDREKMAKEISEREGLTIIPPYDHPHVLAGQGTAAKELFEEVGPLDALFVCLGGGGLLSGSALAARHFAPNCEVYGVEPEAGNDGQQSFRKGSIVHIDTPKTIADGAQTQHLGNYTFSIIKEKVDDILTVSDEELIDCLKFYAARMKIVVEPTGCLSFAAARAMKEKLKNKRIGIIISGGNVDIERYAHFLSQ

Serine racemase [2] = molecular target: T1, Serine racemase; test: as §1, with “enzyme-inhibitor” for “enzyme-substrate-inhibitor”
Proline racemase [3] = molecular target: T2, Proline racemase (Clostridium sticklandii, UniProt Q9L4Q3); test: Noncompetitive inhibition of N-terminal 6xHis-tagged Clostridium sticklandii ATCC 12662 proline racemase expressed in Escherichia coli BL21(DE3) using L/D-proline as substrate preincubated for 5 mins by Cornish-Bowden plot analysis; set-up: species or system Acetoanaerobium sticklandii
T2 sequence (Q9L4Q3 whole entry): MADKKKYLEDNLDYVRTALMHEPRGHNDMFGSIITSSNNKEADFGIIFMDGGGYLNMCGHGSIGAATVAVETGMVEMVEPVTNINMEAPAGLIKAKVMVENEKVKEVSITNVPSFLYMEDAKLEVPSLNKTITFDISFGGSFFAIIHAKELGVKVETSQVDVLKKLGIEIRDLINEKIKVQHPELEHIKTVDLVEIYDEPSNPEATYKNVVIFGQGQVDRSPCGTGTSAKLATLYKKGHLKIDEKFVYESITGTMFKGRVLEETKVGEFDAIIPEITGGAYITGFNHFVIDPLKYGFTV

Proline racemase [4] = molecular target: T2, Proline racemase; test: Inhibition of N-terminal 6xHis-tagged Clostridium sticklandii ATCC 12662 proline racemase expressed in Escherichia coli BL21(DE3) using L/D-proline as substrate preincubated for 5 mins by circular dichroism-based analysis; set-up: species or system Acetoanaerobium sticklandii
[5] = molecular target: T3, Proline racemase (Clostridium sticklandii) (UniProt Q9L4Q3); test: Inhibition of N-terminal 6xHis-tagged Clostridium sticklandii ATCC 12662 proline racemase expressed in Escherichia coli BL21(DE3) using L/D-proline as substrate at 142.5 mM preincubated for 5 mins by circular dichroism-based analysis; details: Acetoanaerobium sticklandii
T3 sequence (whole entry): T2 sequence (Q9L4Q3 whole entry)

[6] = molecular target: T3, Proline racemase (Clostridium sticklandii); test: Inhibition of Clostridium sticklandii ATCC 12662 proline racemase using L-proline as substrate at 0.36 mM relative to control; details: Acetoanaerobium sticklandii
[7] = molecular target: T3, Proline racemase (Clostridium sticklandii); test: Inhibition of Clostridium sticklandii ATCC 12662 proline racemase L-proline as substrate at 57 mM relative to control; details: Acetoanaerobium sticklandii
Proline racemase [8] = molecular target: T2, Proline racemase; test: Competitive inhibition of N-terminal 6xHis-tagged Clostridium sticklandii ATCC 12662 proline racemase expressed in Escherichia coli BL21(DE3) using L/D-proline as substrate; set-up: species or system Acetoanaerobium sticklandii

NC(CO)(CO)C(=O)O
Ki (Serine racemase [1]): 661 mM
Ki (Serine racemase [2]): 167 mM

O=C(O)C12CCCN1CCC2
Ki (Proline racemase [3]): 111 mM
IC50 (Proline racemase [4]): 67 mM

O=C(O)C12CCC(CC1)N2
inhibition [5]: 29%

O=Cc1ccc[nH]1
inhibition [6]: 50%
inhibition [7]: 98%
Ki (Proline racemase [8]): 0.0058 mM
